The source of these data is PMC4608732, “Phosphorylation and Internalization of Lysophosphatidic Acid Receptors LPA1, LPA2, and LPA3” (PLoS ONE, 2015).

Each structure is given as a SMILES string.

Experiment [1] concerns wild-type C9 cells. The experiment can be described thus: Intracellular calcium concentration response to LPA, wild type C9 cells. The class given is cell-based, rat. As for the experimental part: (§1) C9 cells (Clone 9, rat hepatic epithelial cells, CRL-1439™), obtained directly from American Type Culture Collection, were cultured in Ham’s F12 Kaighn’s modification medium supplemented with 10% fetal bovine serum, 100 μg/ml streptomycin, 100 units/ml penicillin and 0.25 μg/ml amphotericin B at 37°C under a 95% air and 5% CO2 atmosphere, as described previously. The medium was replaced with one containing 1% fetal bovine serum, 12–16 h before the experiment. C9 cells stably expressing the mouse LPA1 receptor fused at the carboxyl termini with eGFP were those previously described. […] As depicted in”Fig A in S1 File”, expression of LPA1 and LPA2 receptors was similar (~80%) whereas that of LPA3 was consistently lower (~60%), as evidenced by fluorescence imaging and flow cytometry. Flow cytometry was performed using an Attune NxT Acoustic Focusing Cytometer, employing excitation of 488 nm; data were analyzed using the Attune cytometric software included with the equipment.
(§2) This procedure has been described previously. […] Determinations were carried in an AMINCO-Bowman Series 2 luminescence spectrometer, employing 340 and 380 nm excitation wavelengths and an emission wavelength of 510 nm; chopper interval was 0.5 sec. The intracellular calcium concentration was calculated as described by Grynkiewicz et al.. […]

The target in experiment [2] is T1, LPA1 receptor (Mus musculus, UniProt P61793).
T1 construct: expressed in transfected cells
T1 sequence (P61793 whole entry): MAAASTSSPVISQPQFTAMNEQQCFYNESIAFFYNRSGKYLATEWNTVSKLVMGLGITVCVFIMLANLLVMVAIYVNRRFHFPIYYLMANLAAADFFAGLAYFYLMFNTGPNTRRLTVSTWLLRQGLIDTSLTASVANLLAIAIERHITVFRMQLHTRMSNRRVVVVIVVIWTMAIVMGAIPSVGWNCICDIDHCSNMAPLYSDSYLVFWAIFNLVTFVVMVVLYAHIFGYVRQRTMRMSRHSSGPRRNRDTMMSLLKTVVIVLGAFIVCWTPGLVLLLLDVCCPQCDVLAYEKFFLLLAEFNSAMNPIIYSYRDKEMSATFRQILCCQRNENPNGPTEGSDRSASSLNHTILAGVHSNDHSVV
The experiment can be described thus: Intracellular calcium concentration response to LPA, C9 cells overexpressing LPA1. Type of experiment: cell-based. How it is done:
as §1, §2
For orientation: Calcium assays in cells follow changes in intracellular calcium, usually with a dye or a luminescent sensor.

Experiment [3] addresses T2, LPA2 receptor (Homo sapiens, UniProt Q9HBW0). The experiment can be described thus: Intracellular calcium concentration response to LPA, C9 cells overexpressing LPA2. The class given is cell-based. As for the experimental part:
as §1, §2

For experiment [4], the target named is T3, LPA3 receptor (Homo sapiens, UniProt Q9UBY5).
T3 sequence (Q9UBY5 1-353): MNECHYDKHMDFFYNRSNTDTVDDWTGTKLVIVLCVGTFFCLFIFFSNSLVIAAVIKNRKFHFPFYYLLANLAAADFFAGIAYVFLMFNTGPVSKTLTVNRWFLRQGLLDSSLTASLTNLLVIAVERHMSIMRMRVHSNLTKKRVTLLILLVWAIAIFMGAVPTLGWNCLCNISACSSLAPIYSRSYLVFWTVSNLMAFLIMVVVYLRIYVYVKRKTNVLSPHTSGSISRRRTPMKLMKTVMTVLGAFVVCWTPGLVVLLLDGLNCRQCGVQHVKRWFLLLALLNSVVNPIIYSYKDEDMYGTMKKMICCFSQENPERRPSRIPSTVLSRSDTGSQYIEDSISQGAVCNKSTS
The experiment can be described thus: Intracellular calcium concentration response to LPA, C9 cells overexpressing LPA3. Type of experiment: cell-based. To be noted: cells over-expressing LPA3.
Protocol: C9 cells (Clone 9, rat hepatic epithelial cells, CRL-1439™), obtained directly from American Type Culture Collection, were cultured in Ham’s F12 Kaighn’s modification medium supplemented with 10% fetal bovine serum, 100 μg/ml streptomycin, 100 units/ml penicillin and 0.25 μg/ml amphotericin B at 37°C under a 95% air and 5% CO2 atmosphere, as described previously [11]. The medium was replaced with one containing 1% fetal bovine serum, 12–16 h before the experiment. C9 cells stably expressing the mouse LPA1 receptor fused at the carboxyl termini with eGFP were those previously described [11]. […] Flow cytometry was performed using an Attune NxT Acoustic Focusing Cytometer, employing excitation of 488 nm; data were analyzed using the Attune cytometric software included with the equipment.
Briefly, cells were loaded with 2.5 μM Fura-2 AM in Krebs–Ringer–Hepes containing 0.05% bovine serum albumin (pH 7.4) for 1 h at 37°C and then washed to eliminate unincorporated indicator. Determinations were carried in an AMINCO-Bowman Series 2 luminescence spectrometer, employing 340 and 380 nm excitation wavelengths and an emission wavelength of 510 nm; chopper interval was 0.5 sec. The intracellular calcium concentration was calculated as described by Grynkiewicz et al. [27]. […]

The target in experiment [5] is T2, LPA2 receptor. The experiment can be described thus: Heterologous (PMA) / homologous (LPA) desensitization of LPA-induced calcium response, LPA2 cells. Type of experiment: cell-based. As to conditions: preincubation 10 min, washed, challenge 1 μM LPA, LPA2 cells. How it is done:
(§3) This procedure has been described previously. Briefly, cells were loaded with 2.5 μM Fura-2 AM in Krebs–Ringer–Hepes containing 0.05% bovine serum albumin (pH 7.4) for 1 h at 37°C and then washed to eliminate unincorporated indicator. Determinations were carried in an AMINCO-Bowman Series 2 luminescence spectrometer, employing 340 and 380 nm excitation wavelengths and an emission wavelength of 510 nm; chopper interval was 0.5 sec. The intracellular calcium concentration was calculated as described by Grynkiewicz et al.. In the experiments where prolonged incubation was required (resensitization studies), cells were stimulated, washed, and the incubation was continued in the presence of Fura-2 AM, to avoid dye depletion.
(§4) Agonists-mediated decreases occurred in a concentration-dependent fashion, with a maximum at the concentration of ~ 100 nM. […] It is worth noticing that the shift in the curves was more pronounced in LPA1- or LPA3-expressing cells, than in those that expressed the LPA2 subtype.
(§5) Plotted are the increases in calcium as the percentage of that obtained in cells preincubated without any agent as mean ± S. E. M. of 6 experiments using different cell preparations.

Experiment [6] has as its target T3, LPA3 receptor. Put plainly: Heterologous (PMA) / homologous (LPA) desensitization of LPA-induced calcium response, LPA3 cells. As to conditions: preincubation 10 min, washed, challenge 1 μM LPA, LPA3 cells. Type of experiment: cell-based. How it is done:
as §3, §4, §5

In experiment [7] the target is T3, LPA3 receptor. The experiment can be described thus: LPA3 receptor phosphorylation ([32P]Pi labeling, immunoprecipitation). Type of experiment: cell-based.
Protocol: In brief, cells were incubated in phosphate-free Dulbecco’s modified Eagle’s medium containing 100 μCi/ml [^32P]Pi for 3 h at 37°C. LPA1- and LPA2-expressing cells were cultured in 6 well plates, whereas those expressing LPA3 receptors were cultured in 10 cm dishes. Labeled cells were stimulated with the agents tested and then washed twice with ice-cold phosphate buffered saline and solubilized in buffer containing 10 mM Tris, 150 mM NaCl, 1% sodium cholate, 1% Nonident P40, protease and phosphatase inhibitors, pH 7.4 [11, 12, 14]. The lysates were incubated overnight with protein A-agarose and anti-GFP serum with constant agitation at 4°C. Samples were washed and the pellets containing the immunocomplexes were solubilized in Laemmli’s sample buffer containing 5% β-mercaptoethanol. Proteins were separated using 10% SDS-PAGE and electrotransferred onto polyvinyliden fluoride membranes. Receptor phosphorylation was analyzed with a Molecular Dynamics Typhoon PhosphorImager and the ImageJ software (http://rsb.info.nih.gov/ij/).
Experiment [8] has as its system ERK 1/2. The experiment can be described thus: ERK 1/2 phosphorylation (Western blotting) in C9 cells overexpressing LPA1-3. The class given is cell-based, rat. As to conditions: 1 μM LPA, 5 min, cells overexpressing LPA1-3. How it is done: Cells were cultured to near confluence in 6 well plates and stimulated with the agents tested for the times indicated. Total cellular extracts were obtained by lysing the cells in Laemmli’s sample buffer containing 5% β-mercaptoethanol. The cell extracts were subject to 10% SDS-PAGE and transferred to nitrocellulose membranes. Membranes from samples obtained in parallel were incubated overnight at 4°C, with anti-pERK 1/2 (1:2000) or anti ERK 1/2 (1:2000). The membranes were washed and incubated for 1 h at room temperature with a horseradish peroxidase-conjugated secondary antibody (1:10,000) for enhanced chemiluminescence detection.
Background: A western blot detects proteins with antibodies after separation by electrophoresis.

The target of experiment [9] is T1, LPA1 receptor. Put plainly: LPA1 receptor internalization, confocal imaging. The class given is cell-based. To be noted: LPA1 cells. As for the experimental part: (§6) Cells were seeded at approximately 30% confluence onto glass-bottomed Petri dishes and cultured for 3 h at 37°C in media containing 1% serum. After treatment, cells were washed three times with phosphate buffered saline and fixed with 4% paraformaldehyde in 0.1 M phosphate buffer for 20 min at room temperature; samples were then washed three additional times with phosphate buffered saline. The fluorescent images were acquired with an Olympus Fluoview FV10 confocal microscope with a water-immersion objective (60X). To determine receptor internalization, the plasma membrane was delineated utilizing the differential interference contrast imaging, and fluorescence in this region was quantified employing the ImageJ software. At least 5 or 6 images of different cultures were taken for each condition. Data were normalized as follows: for each experiment, fluorescence (arbitrary units) at the plasma membrane of baseline samples were pooled and the average was considered as 100%.

The target in experiment [10] is T2, LPA2 receptor. The experiment can be described thus: LPA2 receptor internalization, confocal imaging. Type of experiment: cell-based. As to conditions: LPA2 cells. As for the experimental part:
as §6

The target in experiment [11] is T3, LPA3 receptor. The experiment can be described thus: LPA3 receptor internalization, confocal imaging. To be noted: LPA3 cells. The class given is cell-based. How it is done: as §6
Setting [12] is: 1 μM LPA 10 min, washed, incubated to 60 or 120 min.

T2 sequence (Q9HBW0 whole entry): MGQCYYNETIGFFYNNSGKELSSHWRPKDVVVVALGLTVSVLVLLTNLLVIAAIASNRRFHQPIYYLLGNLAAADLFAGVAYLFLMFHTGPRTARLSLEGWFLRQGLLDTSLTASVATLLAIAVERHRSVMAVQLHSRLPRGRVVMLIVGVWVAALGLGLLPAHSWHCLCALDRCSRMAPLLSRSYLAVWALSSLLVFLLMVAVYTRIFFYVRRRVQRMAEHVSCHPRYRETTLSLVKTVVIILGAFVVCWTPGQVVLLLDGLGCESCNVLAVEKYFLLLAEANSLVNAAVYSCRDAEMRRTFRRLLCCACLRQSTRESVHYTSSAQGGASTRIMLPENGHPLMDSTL

For the molecule `CCCCCCCC/C=C\CCCCCCCC(=O)OC[C@@H](O)COP(=O)(O)O` [LPA], the “maximal calcium concentration increase” value in [1] was in the range of 150 to 200 nM. Besides, the EC50 in experiment [1] (read-out: EC50, increase in intracellular calcium concentration) fell in the range of 200 to 400 nM; in experiment [2] (LPA1-overexpressing cells, read-out: EC50, increase in intracellular calcium concentration) it was 200 to 400 nM. The “calcium response (increase of the cation's concentration)” value was 450 to 600 nM in experiment [2] (cells over-expressing LPA1), 450 to 600 nM in [3] (cells over-expressing LPA2) and ~ 300 nM in experiment [4]. The “LPA concentration response curve, intracellular calcium” value in experiment [3] (LPA2-overexpressing cells, curve shifted to the right) was “no clear saturation was achieved at the concentrations tested”. Moreover, the “concentration giving maximum homologous desensitization” value in [5] and in experiment [6] was ~ 100 nM each time. Also, the “time to maximum receptor phosphorylation” value in experiment [7] (1 μM agent, LPA3 cells) is given as at most 15 min. Further, the “concentration at which receptor phosphorylation saturates” value in experiment [7] (15 min incubation, LPA3-overexpressing cells) is ~ 1 μM. For the same molecule, the “increase in ERK phosphorylation” value in [8] is ~ 2 fold. The “recovery of fluorescence at the membrane level after washing” value in experiment [9] (setting [12]) was “recovered rapidly and completely”; in experiment [10] (setting [12]), “slowly”; in [11] (setting [12]), “only partially and also slowly”. In addition, the “receptor internalization (fluorescence at the plasma membrane)” value in experiment [9] (1 μM agent, 30 or 60 min) is recorded as “markedly decreasing fluorescence at the plasma membrane level”; in experiment [11] (1 μM agent, 30 or 60 min) it was “markedly decreasing fluorescence at the plasma membrane level”. Also, in experiment [10] (1 μM agent, 30 or 60 min), the “receptor internalization (decrease in fluorescence at the plasma membrane, compared with other subtypes)” value is reported as “much less intense”.
